Measurements published in ChEMBL document CHEMBL4819122, “Novel 4-(piperazin-1-yl)quinolin-2(1H)-one bearing thiazoles with antiproliferative activity through VEGFR-2-TK inhibition” (Bioorg Med Chem, 2021).
pIC50: −log10 of the molar value.

Tested on: MCF10
Experiment: Cytotoxicity against human MCF10 cells assessed as reduction in cell viability after 3 hrs by MTT assay
Settings: MCF10, 3 h

CC[C@@]1(O)C(=O)OCc2c1cc1n(c2=O)Cc2cc3ccccc3nc2-1 [CAMPTOTHECIN]
pIC50: 4.61
